pIC50: −log10 of the molar value. Marks after values point to notes of the source that are not given here.
Columns and labels:
[1] = tested on: SKOV3 cells; experiment: TALA telomere length after paclitaxel treatment; format: cell-based, human; settings: 200 nM paclitaxel
[2] = tested on: SKOV3 cells; experiment: FISH detection of damaged telomeres after paclitaxel treatment; format: cell-based, human; settings: 200 nM paclitaxel
Excerpt: Fluorescent in situ hybridization (FISH). Fluorescent in situ hybridization (FISH) was used to identify the presence and to estimate the approximate length of individual telomere structures at the end of chromosomes. The FISH method used was a modification of a previously published method (Multani A S et al. (1996) Anticancer Res 16: 3435-3438; Henderson S et al. (1996) J Cell Biol 134:1-12), and consists of the following three steps: (a) the cells are fixed in a manner that promotes spreading of the chromosomes, (b) a nucleotide sequence complementary to the telomere sequence is used as probe to bind to the telomeres and to provide a point of attachment for fluorescently-labeled antibodies, and (c) the fluorescent signal is identified using fluorescent microscopy.
The methods are as follows. To spread the chromosomes, the cell pellet was incubated with a hypotonic solution (75 mM KCl) at 37° C. for 20 min, washed three times and fixed with acetic acid and methanol, dropped onto slides, air-dried, and denatured in 2×SSC and 70% formamide at 74° C. for 5 min. To detect the telomeres, the cells were incubated with a digoxigenin-labeled human telomeric probe (Oncor) at 37° C. for 16 to 18 hr. The slides were washed consecutively in 2×SSC at 42° C. and 72° C., each time for 5 min. After blocking with 5% skim milk for 10 min, cells were incubated sequentially with rhodamine-labeled (red color) anti-digoxigenin, rabbit anti-sheep, and rhodamine-labeled anti-rabbit antibodies, at room temperature for 30 min. Between each step, the slides were washed three times in 130 mM phosphate buffer, pH 7.4, 0.1% Triton X-100, each time for 5 min. The chromosomes were then counterstained with 0.1 μg/ml of […] (blue color) and examined under a fluorescence microscope at 100× magnification using a triple band pass filter at 340 nm.

[3] = tested on: PC3 cells; experiment: Cell detachment from the growth surface; format: cell-based, human; settings: 20 nM paclitaxel, end of 96-hr experiment
Experimental: (§1) Upon drug treatment, the supernatant along with two subsequent Versene rinses, which contained the detached cells, were collected. […] These samples were centrifuged at 1500 rpm for 10 min and the resulting cell pellets were resuspended in 2 ml of culture media. The cell number in the detached and attached fractions were counted using a Coulter counter (Coulter Electronic, Inc., Hialeah, Fla.).

[4] = tested on: FaDu cells; experiment: Cell detachment from the growth surface; format: cell-based, human; settings: 200 nM paclitaxel, end of 48-hr treatment
Experimental: as §1
Treatment with the above agents was initiated after cells were allowed to attach to the growth surface in culture flasks. On the day of experiments, the culture medium was removed and replaced with drug-containing medium. […] For d4T, two concentrations, 20 μM and 40 μM were used.
Agent effect was measured in three ways, i.e., enumeration of the number of cells that remained attached in culture flask, enumeration of the number of cells that detached from the growth surface, and by measuring changes in apoptosis. […] The drug-induced detachment of cells from the growth surface was determined by counting the attached and detached cells.

[5] = tested on: FaDu cells; experiment: Externalization of phosphatidylserine (Annexin V); format: cell-based, human; settings: 200 nM paclitaxel
Excerpt: Externalization of phosphatidylserine. Apoptotic cells lose membrane phospholipid asymmetry and expose phosphatidylserine on the outer leaflet of plasma membrane. The externalized phosphatidylserine was labeled with Annexin V attached to a fluorescence probe FITC (green fluorescence), using the ApoAlert Annexin V assay (Clontech). As apoptosis progresses, propidium iodide penetrates the cell membrane and stains the cytoplasm (yellow-red stain). Briefly, cells were suspended in binding buffer, incubated with Annexin V-FITC and propidium iodide for 5-15 min in the dark, and examined by fluorescence microscopy. Cells labeled with FITC and/or propidium iodide were scored.

[6] = tested on: telomerase activity in histocultures of FaDu xenograft tumors; experiment: TRAP telomerase activity in tumor histocultures; format: cell-based, human; settings: 1 μM paclitaxel
Experimental: Histocultures of solid tumors. Histocultures are cultures of tumor fragments where the three dimensional structure and the heterogeneous tissue composition are maintained. […] Tumor specimens were washed three times with culture medium for three times and dissected into about 1 mm^3 fragments under sterile conditions. The culture medium for the FaDu histocultures was MEM supplemented with 9% heat-inactivated FBS, 2 mM glutamine, 90 μg/ml gentamicin and 90 μg/ml cefotaxime sodium.
For the preparation of cell and tissue extracts, cells and tissue were harvested, washed, and stored at −70° C. […] The protein concentration of the supernatant was determined using Bicinchoninic Acid Kit (Sigma, St Louis, Mo.). […] Samples with equal amounts of protein (1-2 μg) were analyzed by TRAP. […]
The template for the internal standard was amplified by PCR and purified by spin columns (QIAquick PCR purification kit, Qiagen, Valencia, Calif.). The concentration was determined by a spectrophotometer.
PCR was performed on the GeneAmp PCR system 2400 (Perkin Elmer) and initiated by 1 cycle at 94° C. for 3 min, 50° C. for 4 min, and 68° C. for 2 min, then 25 rounds at 94° C. for 30 sec, 50° C. for 30 sec, and 68° C. for 90 sec, followed by 68° C. for 10 min. […] The gel was then dried and the amplification products were detected.

[7] = tested on: FaDu cells; experiment: SRB paclitaxel cytotoxicity in hTR antisense transfected cells; format: cell-based; settings: Homo sapiens, +antisense + IPTG cells (IPTG 44 days), paclitaxel 96 hours, read-out: IC50 of paclitaxel, clone #1
Experimental: In vitro drug activity evaluation. Drug effect was measured in three ways, i.e., by enumerating the number of cells that remained attached in culture flask, by enumerating the number of cells that detached from the growth surface, and changes in levels of apoptosis. The first measurement represents the overall drug effect, i.e., the combination of cytostatic and cytotoxic effects, whereas the latter two measurements reflect the cytotoxic effect. The remaining cell number after drug treatment was measured using the sulforhodamine B (SRB) assay which stains for cellular protein (Skehan P et al. (1990) J Natl Cancer Inst 82:1107-1112).
In brief, cells were seeded onto 96-well plates. To avoid changes in drug concentration caused by excessive evaporation of medium in wells located at the edge of the plate only the inner wells in 96-well plates were used. The outer wells contained only tissue culture media to serve as blanks. […] The amount of SRB was measured by absorbance at 490 nm using an EL 340 microplate biokinetics reader (Bio-Tek Instruments, Inc., Winooski, Vt.). The absorbance is proportional to the number of cells attached to the culture plate. […]
Effect of hTR antisense on the cytotoxic effect of paclitaxel. […] The cytotoxic effect of paclitaxel was quantified using the SRB method which measures the total cellular proteins. […]

[8] = tested on: telomere length; experiment: TALA telomere length, paclitaxel and AZT alone or in combination; format: cell-based, human
Excerpt: The effect of paclitaxel and AZT, alone or in combination, on telomere length was studied using TALA.

[9] = mouse, in vivo
Experimental: The activity of paclitaxel, with or without AZT, was evaluated in immunodeficient mice (male Balb/c nu/nu mice, 6-8 weeks old) bearing the human pharynx FaDu xenografts. […] The saline control group received injections of 200 μl/day of physiological saline of five consecutive days. The paclitaxel group received injections of 10 mg/kg/day paclitaxel dissolved in Cremophor and ethanol (i.e., Taxol) in a volume of 200 μl for five consecutive days. The AZT group received a seven-day infusion of AZT at a rate of 200 ng/hr by a subcutaneously implanted Alzet minipump. […] Animal weights and tumor sizes were measured on days 1, 3, 6, 8, and 10 after initiation of the paclitaxel treatment.

In the case of `CC(=O)O[C@H]1C(=O)[C@@]2(C)[C@H]([C@H](OC(=O)c3ccccc3)[C@]3(O)C[C@H](OC(=O)[C@H](O)[C@@H](NC(=O)c4ccccc4)c4ccccc4)C(C)=C1C3(C)C)[C@]1(OC(C)=O)CO[C@@H]1C[C@@H]2O` [paclitaxel], the “shortening of telomeric length” value ([1]; 24 hr, compared to untreated controls) was 13%, the “telomere shortening on extending treatment” value ([1]; 36 hr) was “did not produce a greater telomere shortening” and the “attached cells showing damaged telomeres” value ([2]; 1 and 12 hr) was < 5%. The “detached cells showing damaged telomeres” value ([2]; 1 hr) was 40%, the “detached cells showing damaged telomeres” value ([2]; 12 hr) was 90% and the “treatment time after which shortening or deletion of telomeres was detectable” value ([2]; FaDu and SKOV3) was 1 h. The detached cell fraction [3] was 68%, the detached cell fraction [4] was “about 40%” and the “fraction labeled for externalized phosphatidylserine” value ([5]; attached cells) was 6-8%. For the same compound, the “time at which labeled fraction became significantly higher than untreated controls” value ([5]; detached cells) was 12 h, the “fraction labeled for externalized phosphatidylserine” value ([5]; detached cells, 24 hr) was 60% and the “time of peak telomerase activity” value [6] was 12 h. The telomerase activity ([6]; 96 hr) was “about 50 % of the baseline level”, the pIC50 [7] was 8.89 and the “shortening of the average telomeric length” value ([8]; 200 nM paclitaxel 24 hr, combination: 10 μM AZT 24 hr pretreatment then AZT plus paclitaxel 24 hr) was 13%. For the same compound, the “telomere shortening on extending treatment” value ([8]; paclitaxel 36 hr) was “did not produce a greater telomere shortening”, the End-of-experiment body weight [9] was 97∀6 ^a % of pretreatment value and the “body weight loss compared to the pretreatment weight” value [9] was < 3%.

— patent US7662361B2, “Methods and compositions for modulating drug activity through telomere damage” (priority 1999, dated 2010)
